# Results published in patent publication US20070004634A1 (Novo Nordisk A/S, priority 1998, published 2007).
# No end group written: not given here.
# Key:
# [1] = molecular target: IR (Homo sapiens, UniProt P06213); experiment: Phage ELISA, binding of phage clones to IR (ratio over background); details: ratio of IR divided by ratio of IGF-1R
# Method: (§1) HIT indicates binder; CAND indicates binder candidate; LDH indicates binding to lactate dehydrogenase (negative control); Sp/Irr indicates the ratio of specific binding over non-specific binding.
# (§2) Sp/Irr=the ratio of specific binding over non-specific binding; LDH=lactate dehydrogenase (negative control).
# (§3) For phage pools, cells from frozen stocks were grown and phage were prepared as described above. For analysis of individual clones, colonies were picked and phage prepared as described above. Subsequent steps were the same for pooled and clonal phage. Microtiter wells were coated and blocked as described above. […] Phage resuspended in MPBS (PBS containing 2% non-fat milk) were added to wells (100 μl/well) and incubated at room temperature for 1 h. The phage solution was then removed, and the wells were washed three times with PBS at room temperature.
# (§4) Anti-M13 antibody conjugated to horseradish peroxidase (Pharmacia Biotech) was diluted 1:3000 in MPBS and added to each well (100 μl/well). Incubation was for another hour at room temperature, followed by PBS washes as described. Color was developed by addition of ABTS solution (100 μl/well; Boehringer). […] Data points were averaged after subtraction of appropriate blanks. A clone was considered “positive” if the A405 of the well was ≧2-fold over background.
# [2] = molecular target: IGF-1R (Homo sapiens, UniProt P08069); experiment: Phage ELISA, binding of phage clones to IGF-1R (ratio over background); details: ratio of IGF-1R divided by ratio of IR
# Method: as §1, §2, §3, §4
Substance,Comparisons IR/IGF-1R [1],Comparisons IGF-1R/IR [2]
AETSAQVGWQRLWSVWPGDHWSTLDPFYHKLSELLRESGA [Peptide B6L-3-G5-IR],0.7,1.4
AETSVQVGWIRLQSVWPGEHWNTVDPFYHKLSELLRGSGA [Peptide B6L-4-D7-IR],0.3,3.4
AGSVTSFYDAMEQLVATGTSA [20E2A-3-A4-IGFR],0.7,1.4
AGTPAQVG*NRLWSVWPGEHWNTVDPFYNKLSELLRESGA (AGTPAQVGXNRLWSVWPGEHWNTVDPFYNKLSELLRESGA; not fully specified; X: residue not identified in the source; ends and bridges not checked) [Peptide B6L-4-A7-IR],0.6,1.8
AICDAGFHEHFYDWFALQVSDCGRQS [H2CA-2-B11-IGFR],0.3,3.0
APDPSDFQEIFYDWFVRQVSRMPGGG [H2CA-1-A3-IGFR],0.2,5.1
AQPCGGFYGLLEQLVGRSVCD [20E2B-4-F10-IGFR],0.1,7.8
ASSASGFYELLQRLAGLGLEV [20E2B-3-C4-IGFR],,6.2
AVRATRFDEAFYDWFVRQISDGQGNK [H2CA-4-F6-IGFR],0.2,6.4
CCTTEMVVMDARDDPFYHKLSELVTGG [Peptide B6Hα-1-B5-IR],0.0,20.5
CGAKMTGTPNDPFYHKLSELLQRG [Peptide B6Hα-3-E6-IR],0.5,1.9
CMM.DGFYAGLGCLLTAGEGR (CMMXDGFYAGLGCLLTAGEGR; not fully specified; printed as CMM.DGFYAGLGCLLTAGEGR; X: residue not identified in the source; cysteine pairing not given here) [20E2B-3-C11-IGFR],0.1,7.5
CSMAAVAEAGDDDDPFYHKLSELCQGS [Peptide B6Hα-3-F1-IR],0.5,1.8
DRAFYNGLRDLVGAVYGAWD [R20α-4-20C11-IR],0.1,10.3
DRDFCRFYERLTALVGGQVDGGWPC [20C-3-F6-IGFR],0.1,14.1
DSVGDNFYQLLESLVGGHGVG [20E2B-3-D6-IGFR],0.1,6.9
EAASLGSQDRNFYDWFVRQVV [Peptide A6S-2-D11-IR],0.4,2.8
EGSGFYGYFFSLLGLQG [NNRPγ-4-A9-IR],0.1,7.1
FFYDCLAALLQGVARYHDLCAVEIT [20C-4-C7-IGFR],<0.1,21.8
FFYRCLSRLLGGQLGSRLGLSCIGD [20C-3-E4-IGFR],0.2,6.0
FRTLAAQHDSFYDWFDRQVSGAAGER [H2CA-3-C11-IGFR],0.5,2.1
FYDAIDQLVRGSARAGGTRD [R20α-3-20E2-IR],0.1,12.9
FYVQQWGHENFYDWFDRQVSQSGGAG [H2CA-4-F1-IGFR],0.3,3.8
GAPVDQLHEDFYDWFVRQVSQAATG [H2CA-2-B2-IGFR],0.3,3.5

Substance,Comparisons IR/IGF-1R [1],Comparisons IGF-1R/IR [2]
GCAVVEEAERSRGDPFYHKLSELIQGC [Peptide B6Hα-3-E7-IR],0.2,4.3
GCEVIVEEGDSADPFYHKLSELCQGS [Peptide B6Hα-2-D1-IR],0.2,4.2
GCITAENGAGDPFYHKLSELGGCS [Peptide B6Hα-1-B3-IR],0.3,2.9
GCVVEWQKWHGASDPFYHKLSELGGCS [B6Hα-3-F10-IR],0.2,4.6
GFREGNFYEWFQAQVT [Peptide E4Dα-4-H2-IR],0.2,4.1
GFREGSFYDWFQAQVT [E4Dα-2-D11-IR],0.3,3.4
GGTEVDFYRALERLVRGQLGL [20E2B-3-D8-IGFR],0.1,11.3
GGTKAVAKVGTRDDPFYHKLSELLQGS [Peptide B6Hα-4-G8-IR],0.3,3.6
GHYFGSFYDAIDQLVAGMLPG [20E2A-3-A3-IGFR],0.5,1.9
GIISQSCPESFYDWFAGQVSDPWWCW [H2CA-4-G9-IGFR],0.1,16.0
GLDHSDAVGVHLGFAWPAQARGRWEAGGLEDTWAGYDWL [40F-4-B1-IGFR],0.1,13.1
GNGDGMFYQLLSLLVGRDMHV [20E2B-3-C2-IGFR],0.1,13.8
GRTMAVMAAGGPDDPFYHKLSELVQGG [Peptide B6Hα-2-D6-IR],0.2,4.4
GVRAMSFYDALVSVLGLGPSG [20E2B-1-A6-IGFR],0.1,16.8
HLADGQFHEKFYDWFERQISSRCNDC [H2CA-3-E11-IGFR],0.5,2.2
ICTGQGFYQVLCGLLRGTSAR [20E2B-2-B3-IGFR],0.1,7.4
IIGGFYSYFNSVLRLGT [NNRPγ-4-A1-IR],0.2,6.0
IQQELTFYDLLHRLVRSELGS [20E2B-3-D2-IGFR],0.1,11.7
KLHNLMFYYGLQRLVWGAGLG [20E2B-4-H3-IGFR],0.1,13.9
LGVTDGFYAALGYLIHGVGQF [20E2B-3-D11-IGFR],0.1,7.6
LGYQEPFQQNFYDWFVRQVSGAENAG [H2CA-3-E8-IGFR],0.3,2.9
LKDGFYDYFWQRLHLGS [NNRPγ-4-B11-IR],0.1,15.5
LRIANLFYQRLWDLAFGGGG [20E2B-3-E8-IFGR],0.1,11.1
LRRQAPVEENFYDWFVRQVSGDRVGG [H2CA-3-D7-IGFR],0.3,3.7

Substance,Comparisons IR/IGF-1R [1],Comparisons IGF-1R/IR [2]
LSCLAYSRHGIWRPSTDLGLGRSVGEGSVSTRWRGYDWFE [40F-4-D1-IGFR],0.1,13.1
LSSDGQFYRALNLLLQGSAGR [20E2B-2-B7-IGFR],0.1,6.7
LSVALSFYDALGQLVAGEGRW [20E2A-3-A12-IGFR],0.3,3.9
MMVVDGFYDALHQLVVAQSLG [20E2A-3-D10-IGFR],0.3,3.9
MNVFVSFYDAIDQLVCQRIGC [20E2A-4-G11-IGFR],0.4,2.6
NSRDGGFYLQLERLLGFPVTG [20E2B-3-D4-IGFR],0.1,9.6
NYRRQVFNGNFYDWFDRQVFSLVTPG [H2CA-3-D8-IGFR],0.3,4.0
PAGPCGFYCGLGLLLHGDQSP [20E2B-4-H8-IGFR],0.2,5.9
PDLHKGFYAQLAQLIRGQLLS [20E2B-3-E3-IGFR],0.1,13.1
PGTDLGFYQALRCVVIQGACD [20E2B-2-B2-IGFR],0.1,8.1
PPLASDLDVQFYGWFVQQVSPPGRGG [H2CA-2-B3-IGFR],0.3,3.6
PVGVQGFYEGLSRLVLGRGGW [20E2B-4-F8-IGFR],0.1,9.7
QAVQPGFHEEFYDWFVRQVSTGVGGG [H2CA-4-H4-IGFR],0.2,4.2
QFYGCLLDLSLGVPSFGWRRRCITA [20C-3-A4-IGFR],0.1,7.6
QGGSASFYDAIDRLLRMRIGG [20E2A-4-F11-IGFR],0.1,14.6
QGNVLDFYGWIGRLLAKQGSD [20E2B-3-D12-IGFR],0.1,7.3
QPAPDGFYSALMKLIGRGGVS [20E2B-3-C8-IGFR],0.1,8.9
QPDHSYFYSLLQELVGSEERL [20E2B-4-F9-IGFR],0.1,7.7
QSGSGDFYDWLSRLIRGNGDG [20E2Bβ-3-C7-IR],0.5,2.0
QSPVGSSHEDFYDWFFRQVAQSGAHQ [H2CA-3-D6-IGFR],0.3,4.0
RAGSSDFHEDFYEWFVRQVSLSLKGK [H2CA-2-B9-IGFR],0.2,4.2
RCEEKQAEVGPSSDPFYHKMSELLGCR [Peptide B6Hα-3-E9-IR],0.1,14.2
RCGDEEGWQENRRDDPFYHKLSELFGGC [Peptide B6Hα-3-E5-IR],0.3,2.9
RGCNDDGGKGWSDDPFYHKLSELICGG [Peptide B6Hα-1-A2-IR],,14.6
